Test results taken from patent publication US5681738A, “Use of 10-oxo-trans-8-decenoic acid in mushroom cultivation” (The Penn State Research Foundation, priority 1992, dated 1997).

Tests used:
[1] = Dissociation constant by titration with ethanolic NaOH; type: physicochemical; conditions: water; aqueous solution; Henderson-Hasselbalch; standard deviation 10^0.04; read-out: dissociation constant (Ka)
Description: The purity of ODA was then determined by titration with ethanolic NaOH. The molarity of NaOH was standardized by anhydrous oxalic acid which was dried overnight at 100° C. Three points in the titration curve, with the ratios of [A-] to [HA] equal to 1/3, 1/1 and 3/1, respectively, were chosen for the calculation of the dissociation constant (Ka) of ODA based on the Henderson-Hasselbalch equation (Mathews et al., (1990)): […]

[2] = system: Agaricus bisporus mycelia; assay: Laccase activity of mycelia grown in potato dextrose yeast broth at 25° C.; type: cell-based, Agaricus bisporus (hybrid off-white)
Description: The commercial mushroom spawn (hybrid off-white), Agaricus bisporus (Lange) Imbach, was obtained from Alpha Spawn Co., Avondale, Pa., and inoculated onto potato dextrose yeast (PDY) agar (Difco) and incubated at 25° C. A pure culture was obtained from the grain spawn grown on petri dishes and re-inoculated into PDY agar and maintained at 25° C. before use.
The mushroom culture was grown on PDY agar or in PDY broth, both containing 0.5% yeast extract. The broth was dispensed into flasks prior to autoclaving, 50 mL. per flask, while 5 mL of sterile ODA solutions were aseptically added into flasks before inoculation.
To prepare ODA solutions, about 18.4 mg (0.1 mmole) of 10-oxo-trans-8-decenoic acid prepared as described above were dissolved in i mL ethanol and diluted with deionized water to 100 mL to give a molar concentration of 10^-3 M, and then diluted in order to add 1.0 mL of the solutions to each flask to give the required final concentrations.
Sterile ODA solutions were aseptically added into the autoclaved agar medium to achieve the desired final ODA concentrations, and then the medium was dispensed into petri dishes, ca 30 ml per dish. The levels of ODA tested included 2×10^-4, 10^-4, 10^-5, 10^-6 and 10^-7 M for both PDY agar and broth. These flasks and dishes were inoculated with 1 mm mycelial plugs from 4-week old cultures and incubated statically at 25° C. for 5 weeks. Each week, ca 300 μL of broth was aseptically taken from the flasks for laccase assay, while the colony diameter of every petri dish was measured using a vernier caliper to calculate the linear growth of the culture.
The activity of laccase was assayed as described in Leonowicz et al., (1981). The reaction mixture consisted of 1.0 ml of 0.04M MES (2-[N-morpholino] ethanesulfonic acid, Sigma)-NaOH buffer, pH 5.3, 200 μL of 0.5 mM syringaldazine ([…], Sigma) in EtOH, and 100 μL of culture broth withdrawn from the flasks making up a final volume of 1.3 mL. The control mixture contained no culture broth. The change in absorbance was monitored for 5 mins at 525 nm. Laccase activity was expressed in units of kat, the conversion of 1 mole of syringaldazine per sec.
Methods for the estimation of total fungal growth include the measurement of dry matter, linear growth, carbon dioxide evolution, chitin, ATP as well as extracellular laccase activity (Cochrane, (1958); Wood, (1979)). In this research the linear growth rate was used to examine the growth of mushroom mycelia on agar plates, while the extracellular laccase activity and dry matter were determined to estimate the growth of mycelia in liquid cultures. Extracellular laccases (p-diphenol: oxygen oxidoreductase, EC 1.10.3.2) produced by various classes of fungi are reported to be involved in biotransformation of lignin and lignosulfonate (Anders et al., (1976)), as well as in the breakdown of cellulose by cellulase (Westermark et al., (1974a); Westermark et al., (1974b); Haars et al., (1980)). Although the role of laccase in growth and development of Agaricus bisporus is not well defined, it has been observed that laccase production correlated with mycelial biomass of this fungus (Wood, (1979); Matcham et al., (1985); Claydon et al., (1988)).

O=C/C=C/CCCCCCC(=O)O [ODA, 10-oxo-trans-8-decenoic acid]
pKa [1]: 4.68 | mycelial growth by laccase activity and dry matter (in words) ([2]; 10^-6 and 10^-5 M (0.184 and 1.84 ppm), liquid culture): stimulated | LOG [Laccase activity (mkat/ml)] ([2]; ODA 2 × 10^-4 M (36.8 ppm), Week 1, control 0.49): 0.25 LOG (mkat/ml) | LOG [Laccase activity (mkat/ml)] ([2]; ODA 2 × 10^-4 M (36.8 ppm), Week 2, control 1.19): 1.84 LOG (mkat/ml) | LOG [Laccase activity (mkat/ml)] ([2]; ODA 2 × 10^-4 M (36.8 ppm), Week 3, control 1.97): 2.07 LOG (mkat/ml) | LOG [Laccase activity (mkat/ml)] ([2]; ODA 2 × 10^-4 M (36.8 ppm), Week 4, control 2.37): 2.15 LOG (mkat/ml) | LOG [Laccase activity (mkat/ml)] ([2]; ODA 2 × 10^-4 M (36.8 ppm), Week 5, control 2.74): 2.38 LOG (mkat/ml) | LOG [Laccase activity (mkat/ml)] ([2]; ODA 10^-4 M (18.4 ppm), Week 1, control 0.49): 1.04 LOG (mkat/ml) | LOG [Laccase activity (mkat/ml)] ([2]; ODA 10^-4 M (18.4 ppm), Week 2, control 1.19): 2.13 LOG (mkat/ml) | LOG [Laccase activity (mkat/ml)] ([2]; ODA 10^-4 M (18.4 ppm), Week 3, control 1.97): 2.29 LOG (mkat/ml) | LOG [Laccase activity (mkat/ml)] ([2]; ODA 10^-4 M (18.4 ppm), Week 4, control 2.37): 2.38 LOG (mkat/ml) | LOG [Laccase activity (mkat/ml)] ([2]; ODA 10^-4 M (18.4 ppm), Week 5, control 2.74): 2.64 LOG (mkat/ml) | LOG [Laccase activity (mkat/ml)] ([2]; ODA 10^-5 M (1.84 ppm), Week 1, control 0.49): 1.63 LOG (mkat/ml) | LOG [Laccase activity (mkat/ml)] ([2]; ODA 10^-5 M (1.84 ppm), Week 2, control 1.19): 2.62 LOG (mkat/ml) | LOG [Laccase activity (mkat/ml)] ([2]; ODA 10^-5 M (1.84 ppm), Week 3, control 1.97): 2.90 LOG (mkat/ml) | LOG [Laccase activity (mkat/ml)] ([2]; ODA 10^-5 M (1.84 ppm), Week 4, control 2.37): 3.20 LOG (mkat/ml) | LOG [Laccase activity (mkat/ml)] ([2]; ODA 10^-5 M (1.84 ppm), Week 5, control 2.74): 3.53 LOG (mkat/ml) | LOG [Laccase activity (mkat/ml)] ([2]; ODA 10^-6 M (0.184 ppm), Week 1, control 0.49): 1.16 LOG (mkat/ml) | LOG [Laccase activity (mkat/ml)] ([2]; ODA 10^-6 M (0.184 ppm), Week 2, control 1.19): 2.34 LOG (mkat/ml) | LOG [Laccase activity (mkat/ml)] ([2]; ODA 10^-6 M (0.184 ppm), Week 3, control 1.97): 2.76 LOG (mkat/ml) | LOG [Laccase activity (mkat/ml)] ([2]; ODA 10^-6 M (0.184 ppm), Week 4, control 2.37): 3.07 LOG (mkat/ml) | LOG [Laccase activity (mkat/ml)] ([2]; ODA 10^-6 M (0.184 ppm), Week 5, control 2.74): 3.43 LOG (mkat/ml) | LOG [Laccase activity (mkat/ml)] ([2]; ODA 10^-7 M (0.0184 ppm), Week 1, control 0.49): 0.73 LOG (mkat/ml) | LOG [Laccase activity (mkat/ml)] ([2]; ODA 10^-7 M (0.0184 ppm), Week 2, control 1.19): 2.15 LOG (mkat/ml) | LOG [Laccase activity (mkat/ml)] ([2]; ODA 10^-7 M (0.0184 ppm), Week 3, control 1.97): 2.57 LOG (mkat/ml) | LOG [Laccase activity (mkat/ml)] ([2]; ODA 10^-7 M (0.0184 ppm), Week 4, control 2.37): 2.86 LOG (mkat/ml) | LOG [Laccase activity (mkat/ml)] ([2]; ODA 10^-7 M (0.0184 ppm), Week 5, control 2.74): 3.08 LOG (mkat/ml)
